Results published in patent US10391143B2, “Mitochondrial-derived peptide MOTS3 regulates metabolism and cell survival” (THE REGENTS OF THE UNIVERSITY OF CALIFORNIA, priority 2013, dated 2019).
Ends that are not written are not given here.

How the values were obtained:
Assay type in all cases: in vivo
[1] = tested on: ZDF diabetic rats; experiment: Blood sugar in ZDF diabetic rats after 6 days of treatment; conditions: IV daily for 6 days; MOTS-c 1 mg per 400 gram rat
Method: FIG. 33 describes Day 6 fasting blood sugars. ZDF diabetic rats were followed until their blood sugar was […], at which point treatment was initiated with one of two doses of MOTS-c or insulin, given IV at 8 AM for 6 days. 6 rats per group were used. Fasting blood sugars were measured after 6-days. ANOVA and student t-tests were used for analysis and p-values.
FIG. 34 describes absolute change in blood glucose at Day 6. In the same experiment described in FIG. 33, absolute changes in blood glucose are shown.

[2] = tested on: prostate cancer (22Rv1); experiment: Prostate cancer subcutaneous allograft mouse model; conditions: 22Rv1 allograft mice
[3] = tested on: breast cancer (4T1); experiment: Breast cancer subcutaneous allograft mouse model; conditions: 4T1 allograft mice

Substance	absolute change in blood glucose at Day 6 [1]	toxicity as reflected by body weight maintenance [2]	toxicity as reflected by body weight maintenance [3]
insulin: insulin given IV daily for 6 days as comparator in ZDF diabetic rats	stabilize their blood sugar at levels similar to baseline		
MRWQEMGYIFYPRKLR [MOTS3, MRWQEMGYIFYPRKLR]		not toxic	not toxic
